According to patent publication US20110263862A1, “PIPERIDINE DERIVATIVE, PIPERAZINE DERIVATIVE AND AGENT FOR TREATMENT OF DISEASE INVOLVING CENTRAL NERVOUS SYSTEM DISORDERS” (M'S Science Corporation, priority 2008, published 2011):

What was measured:
[1] = biological target: T1, sigma receptor (Cavia porcellus, UniProt Q60492); test: Evaluation of affinity to sigma receptors ([3H](+)-pentazocine receptor binding experiment); design: species or system guinea pig; conditions: membrane preparation from whole brain of guinea pigs, 25° C., 60 minutes, Dixon plot
T1 construct: A membrane preparation as a sigma receptor obtained from the whole brain of guinea pigs; from tissue; host or cells: guinea pig whole brain membrane preparation
Procedure: A membrane preparation as a sigma receptor obtained from the whole brain of guinea pigs was used as an assay system; [^3H] (+)-pentazocine was used as a radioactive ligand; (+)-pentazocine was used as a positive substance; and 50 mM Tris hydrochloric acid buffer (pH 7.4) was used as a buffer.
The measurement of the following radioactivity was performed according to a common method after the binding reaction had been carried out at 25° C. for 60 minutes.
The inhibition rate was determined by the equation of “100−binding rate”. The binding rate is represented by the following equation:
The IC50 of the test substance was calculated from a regression equation to the dose-response curve. That is, the ratio y=(B−N)/(B0−N) wherein a value of (B−N) is a specific binding radioactivity in the presence of a test substance, and a value of (B0−N) is a specific binding radioactivity in the absence of a test substance was first subjected to logit conversion and applied to a logit-log model plotted against the common logarithm of the test substance concentration to create a dose-response curve. […] The regression equation to the dose-response curve used is as follows:
wherein Y=logity=ln(y/(1−y), X=log x, and a and b are each a constant, provided that x is a solute concentration of a test substance.
Then, for each concentration of the positive substance, the reaction rate was measured while changing the concentration of the test substance in a range including the IC50 to create the Dixon plot, and the Ki value was calculated from the test substance concentration giving an intersection of these straight lines.

[2] = test system: rat cerebral cortex neural cells; test: Evaluation of neurite outgrowth-promoting activity in central neural cells; format: cell-based; conditions: 48 hours after addition, longest neurite length 60 μm or more, mean±standard error, control 18.0 ± 1.6
Procedure: The neurite outgrowth-promoting effect of the rat cerebral cortex neural cells on test substances was evaluated using the following method. The cerebral cortex neural cells were isolated from Wistar rats on the 18th day of pregnancy according to the method of Springer Neuroscience Lab Manual. That is, under ether anesthesia, a fetal rat was removed from the uterus of a pregnant rat on day 18, and transferred into a petri dish containing HBSS (manufactured by Gibco, Inc.) on ice. The brain was subdivided into three pieces under a stereoscopic microscope to cut out the cerebral cortex. The cerebral cortex that had been cut out was dispersed with a neural cell dispersion solution (manufactured by Sumitomo Bakelite Co., Ltd.) to prepare rat cerebral cortex cells.
The resulting cerebral cortex cells were subjected to cell culture. Neurobasal medium (manufactured by Gibco, Inc.) supplemented with B27 Supplement (manufactured by Gibco, Inc.; Fin. 2% v/v), L-glutamine (manufactured by IBCO company; Fin. 0.5 mM) and GlutaMax I (manufactured by Gibco, Inc.; Fin. 0.5 mM) was used as the culture medium. The culture conditions were as follows: 5% CO2, 95% air, 100% humidity, and 37° C. The cells were inoculated to polylysine-coated 8-well slides (manufactured by IWAKI company) so as to have about 2×10^4 cells/well.
Compounds (1) to (6) were added as respective test substances (final concentrations: […] and 1.0 μM) to the culture solution at about 3 hours after the cell inoculation, and the culture solution with no additives was used as a control.
At 48 hours after the addition of the compounds, the cells were fixed at room temperature for about 30 minutes using 4% paraformaldehyde (manufactured by Wako Pure Chemical Industries), and incubated with an anti-α-Tublin antibody (Anti-α-Tubulin Alexa Fluor 488 conjugate) recognizing a microtubule protein, at room temperature for one hour. After washing, the nucleus of the whole cell was stained with a nucleic acid-staining agent DAPI. The cells were observed under a fluorescence microscope at a magnification of 20 times. The stained cell image and the nuclear staining image in the same field of vision were imported into a computer as the image. Using an image analysis software (MethaMorph (registered trademark), Molecular Devises), the image imported into the computer, was used to measure the “longest neurite length” that was the length of the longest neurite of individual cell in each field of vision. A cell having a length of the “longest neurite length” of 60 μm or more is defined as a “neurite forming cell” and the neurite forming activity was evaluated by the ratio of the “neurite forming cell” occupied in the number of the cells in the same field of vision. In other words, such evaluation was performed by determining the rate of the neurite forming cells using the following equation:
Rate of neurite forming cells=[Number of neurite forming cells/Number of total cells in the same field of vision]×100
Each numerical value represents mean±standard error.

T1 sequence (Q60492 whole entry): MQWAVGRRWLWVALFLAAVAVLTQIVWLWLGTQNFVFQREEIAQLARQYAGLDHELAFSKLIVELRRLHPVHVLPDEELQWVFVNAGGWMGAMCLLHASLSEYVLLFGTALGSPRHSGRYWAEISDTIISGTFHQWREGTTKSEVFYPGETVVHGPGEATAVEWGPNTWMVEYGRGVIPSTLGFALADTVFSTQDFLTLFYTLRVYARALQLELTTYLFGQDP

Row | Structure (SMILES) | Ki [1] [nM] | Neurite outgrowth-promoting activity (rate of neurite forming cells) ([2]; 0.3 μM) [%] | Neurite outgrowth-promoting activity (rate of neurite forming cells) ([2]; 1.0 μM) [%]
1 | c1ccc(CCC2CCN(C3CCCCC3)CC2)cc1 [Compound (5), 1-cyclohexyl-4-(2-phenylethyl)piperidine] | 3.9 | 51.2 ± 2.0 | 48.9 ± 1.5
2 | c1ccc(CC2CCN(C3CCCCC3)CC2)cc1 [Compound (4), 1-cyclohexyl-4-benzylpiperidine] | 7 | 50.7 ± 2.7 | 51.1 ± 2.9
3 | COc1ccc(CCN2CCN(CCCc3ccccc3)CC2)cc1OC [Reference compound, reference compound] |  | 44.6 ± 2.2 | 58.4 ± 1.8
4 | c1ccc(CCCC2CCN(C3CCCCC3)CC2)cc1 [Compound (6), 1-cyclohexyl-4-(3-phenylpropyl)piperidine] | 2.1 | 54.2 ± 1.7 | 46.0 ± 2.4
5 | c1ccc(CCN2CCN(C3CCCCC3)CC2)cc1 [Compound (2), 1-(2-phenylethyl)-4-cyclohexylpiperazine] | 6 | 55.7 ± 2.4 | 55.1 ± 2.3
6 | c1ccc(CCCN2CCN(C3CCCCC3)CC2)cc1 [Compound (3), 1-(3-phenylpropyl)-4-cyclohexylpiperazine] | 6.1 | 49.6 ± 2.7 | 58.4 ± 2.8
7 | c1ccc(CN2CCN(C3CCCCC3)CC2)cc1 [Compound (1), 1-benzyl-4-cyclohexylpiperazine] | 6.5 | 55.2 ± 1.5 | 54.6 ± 1.5
